In US20240148821A1, “PHARMACEUTICAL USE OF CYCLIC PEPTIDE COMPOUND” (CHUGAI SEIYAKU KABUSHIKI KAISHA, priority 2021, published 2024):
Bridge positions count the residues as written; N and C are the ends. Square brackets hold non-standard residues; d marks the D form. Peptide text beside a SMILES is read from it. * marks the point of attachment. hPhe(3-Cl-4-CF3) = N[C@@H](CCc1ccc(C(F)(F)F)c(Cl)c1)C(=O)O; hPhe(3-F,4-CF3) = N[C@@H](CCc1ccc(C(F)(F)F)c(F)c1)C(=O)O; Phe(2-OCF3) = N[C@@H](Cc1ccccc1OC(F)(F)F)C(=O)O; NMePhe(4-Me) = CN[C@@H](Cc1ccc(C)cc1)C(=O)O; NMeNle(6-CHF2) = CN[C@@H](CCCCC(F)F)C(=O)O; NMePhe(2-Cl) = CN[C@@H](Cc1ccccc1Cl)C(=O)O; Phe(3-I) = N[C@@H](Cc1cccc(I)c1)C(=O)O; NMeCha = CN[C@@H](CC1CCCCC1)C(=O)O; Pro(4-oxo) = O=C1CN[C@H](C(=O)O)C1; NMeChg = CN[C@H](C(=O)O)C1CCCCC1; N(CH2CH2)2CF2 = FC1(F)CCN(*)CC1; NMeD = CN[C@@H](CC(=O)O)C(=O)O; NMeL = CN[C@@H](CC(C)C)C(=O)O; NMeV = CN[C@H](C(=O)O)C(C)C; d(β3hA) = C[C@@H](N)CC(=O)O; NMeAbu = CC[C@H](NC)C(=O)O; NMeS = CN[C@@H](CO)C(=O)O; hSer = N[C@@H](CCO)C(=O)O; NMeA = CN[C@@H](C)C(=O)O; NMeAib = CNC(C)(C)C(=O)O; Piperidide = C1CCN(*)CC1; Pyrrolidide = C1CCN(*)C1; Ac5c = NC1(C(=O)O)CCCC1; Aze = O=C(O)[C@@H]1CCN1; Ac4c = NC1(C(=O)O)CCC1; X113 = Fc1cncc(C*)c1; Sar = CNCC(=O)O

system: Human pancreatic cancer cell line AsPC-1 (G12D mutation Kras); assay: AsPC-1 cell growth inhibition (AsPC-1 CGI); assay type: cell-based; details: read-out: AsPC-1 cell growth inhibition, 50% growth inhibitory concentration (IC50 value); 96 hours, CellTiter-Glo, values classified in ranges
Procedure: Test compounds were serially dilated with dimethyl sulfoxide, and 200 nL was then dispensed to a U-bottom 96-well plate using Labcyte Echo. […] The cell suspension was dispensed to a. plate containing a test compound at 100 μL per well and incubated at 37° C. in a 5% carbon dioxide gas incubator. 96 hours later, 80 μL of CellTiter-Glo (Promega) was added to each well and fluorescence was measured.

Compound	IC50 [nM]
CC[C@H](C)[C@@H]1NC(=O)[C@H](CC(C)C)N(C)C(=O)C[C@@H](C(=O)N2CCCCC2)N(C)C(=O)[C@H](C(C)C)N(C)C(=O)C2(CCC2)NC(=O)[C@H](CC(=O)N2CCC(F)(F)CC2)N(C)C(=O)[C@H](CCc2ccc(C(F)(F)F)c(Cl)c2)NC(=O)CN(C)C(=O)[C@H](CC2CCCCC2)N(C)C(=O)CN(C)C(=O)CN(C)C1=O [Compound 251] ([NMeL]I[Sar][Sar][NMeCha][Sar][hPhe(3-Cl-4-CF3)][NMeD](N(CH2CH2)2CF2)[Ac4c][NMeV][NMeD]-Piperidide; lactam N-11)	> 500
CC[C@H](C)[C@@H]1NC(=O)[C@H](C)N(C)C(=O)C[C@@H](C(=O)N2CCCC2)N(C)C(=O)[C@H](C(C)C)N(C)C(=O)C2(CCC2)NC(=O)[C@H](Cc2ccccc2Cl)N(C)C(=O)[C@H](CCc2ccc(C(F)(F)F)c(Cl)c2)NC(=O)CN(C)C(=O)[C@H](CC2CCCCC2)N(C)C(=O)CN(C)C(=O)CN(C)C1=O [Compound 906] ([NMeA]I[Sar][Sar][NMeCha][Sar][hPhe(3-Cl-4-CF3)][NMePhe(2-Cl)][Ac4c][NMeV][NMeD]-Pyrrolidide; lactam N-11)	> 500
COCC[C@@H]1NC(=O)[C@H](CC(C)C)N(C)C(=O)C[C@@H](C(=O)N2CCCCC2)N(C)C(=O)[C@H](C2CCCCC2)N(C)C(=O)C2(CCCC2)NC(=O)[C@@H]2CCCN2C(=O)[C@H](CCc2ccc(C(F)(F)F)c(Cl)c2)NC(=O)CN(C)C(=O)[C@H](CC2CCCCC2)N(C)C(=O)CN(C)C(=O)CN(C)C1=O [Compound 941] ([NMeL][hSer](Me)[Sar][Sar][NMeCha][Sar][hPhe(3-Cl-4-CF3)]P[Ac5c][NMeChg][NMeD]-Piperidide; lactam N-11)	> 500
CC[C@H](C)[C@@H]1NC(=O)[C@H](CC(C)C)N(C)C(=O)C[C@@H](C(=O)N2CCCCC2)N(C)C(=O)[C@H](CCCCC(F)F)N(C)C(=O)C2(CCCC2)NC(=O)[C@@H]2CCCN2C(=O)[C@H](CCc2ccc(C(F)(F)F)c(Cl)c2)NC(=O)CN(C)C(=O)[C@H](CC2CCCCC2)N(C)C(=O)CN(C)C(=O)CN(C)C1=O [Compound 653] ([NMeL]I[Sar][Sar][NMeCha][Sar][hPhe(3-Cl-4-CF3)]P[Ac5c][NMeNle(6-CHF2)][NMeD]-Piperidide; lactam N-11)	> 500
CC[C@H](C)[C@@H]1NC(=O)[C@H](CC(C)C)N(C)C(=O)C[C@@H](C(=O)N2CCCCC2)N(C)C(=O)[C@H](C(C)C)N(C)C(=O)C2(CCCC2)NC(=O)[C@@H]2CC(=O)CN2C(=O)[C@H](CCc2ccc(C(F)(F)F)c(Cl)c2)NC(=O)CN(C)C(=O)[C@H](CC2CCCCC2)N(C)C(=O)[C@@H]2CCN2C(=O)[C@H](C)N(C)C1=O [Compound 1819] ([NMeL]I[NMeA][Aze][NMeCha][Sar][hPhe(3-Cl-4-CF3)][Pro(4-oxo)][Ac5c][NMeV][NMeD]-Piperidide; lactam N-11)	> 500
CC[C@H](C)[C@@H]1NC(=O)[C@H](CC(C)C)N(C)C(=O)C[C@@H](C(=O)N2CCCCC2)N(C)C(=O)[C@H](C2CCCCC2)N(C)C(=O)C2(CCCC2)NC(=O)[C@H](COCc2cncc(F)c2)N(C)C(=O)[C@H](CCc2ccc(C(F)(F)F)c(Cl)c2)NC(=O)CN(C)C(=O)[C@H](CC2CCCCC2)N(C)C(=O)CN(C)C(=O)CN(C)C1=O [Compound 950] ([NMeL]I[Sar][Sar][NMeCha][Sar][hPhe(3-Cl-4-CF3)][NMeS](X113)[Ac5c][NMeChg][NMeD]-Piperidide; lactam N-11)	> 500
CC[C@H](C)[C@@H]1NC(=O)[C@H](CC(C)C)N(C)C(=O)C[C@@H](C(=O)N2CCCCC2)N(C)C(=O)[C@H](CC(C)C)NC(=O)C(C)(C)N(C)C(=O)[C@H](Cc2ccccc2OC(F)(F)F)NC(=O)[C@H](Cc2cccc(I)c2)NC(=O)CN(C)C(=O)[C@H](Cc2ccc(C)cc2)N(C)C(=O)[C@@H]2CCN2C(=O)[C@H](C)N(C)C1=O [Compound 1129] ([NMeL]I[NMeA][Aze][NMePhe(4-Me)][Sar][Phe(3-I)][Phe(2-OCF3)][NMeAib]L[NMeD]-Piperidide; lactam N-11)	> 500
CC[C@H](C)[C@@H]1NC(=O)[C@H](CC(C)C)N(C)C(=O)C[C@@H](C(=O)N2CCCCC2)N(C)C(=O)[C@H](C(C)C)NC(=O)C2(CCCC2)NC(=O)[C@@H]2CCCN2C(=O)[C@H](CCc2ccc(C(F)(F)F)c(Cl)c2)NC(=O)CN(C)C(=O)[C@H](CC2CCCCC2)N(C)C(=O)[C@@H]2CCN2C(=O)[C@H](C)N(C)C1=O [Compound 1106] ([NMeL]I[NMeA][Aze][NMeCha][Sar][hPhe(3-Cl-4-CF3)]P[Ac5c]V[NMeD]-Piperidide; lactam N-11)	> 500
CC[C@H](C)[C@@H]1NC(=O)[C@H](CC(C)C)N(C)C(=O)C[C@@H](C)NC(=O)[C@H](CC)N(C)C(=O)C2(CCCC2)NC(=O)[C@@H]2CCCN2C(=O)[C@H](CCc2ccc(C(F)(F)F)c(F)c2)NC(=O)CN(C)C(=O)[C@H](CC2CCCCC2)N(C)C(=O)CN(C)C(=O)CN(C)C1=O [Compound 1469] (cyclo([Ac5c][NMeAbu][d(β3hA)][NMeL]I[Sar][Sar][NMeCha][Sar][hPhe(3-F,4-CF3)]P))	> 500
